Test results reported in the NIST ThermoML archive (doi:10.1021/je034102r).

Assay: molar heat capacity at constant pressure
Conditions: 101.33 kPa, Liquid, heat bridge-scanning calorimeter

CCCCn1cc[n+](C)c1.F[P-](F)(F)(F)(F)F [1-butyl-3-methylimidazolium hexafluorophosphate]
Conditions	molar heat capacity at constant pressure [J/K/mol]
466.32 K	494.48
466.46 K	494.76
466.59 K	495.05
466.73 K	495.9
466.87 K	495.33
467 K	495.33
467.14 K	495.33
467.28 K	495.05
467.41 K	495.33
467.55 K	495.05
467.84 K	495.05
467.98 K	495.33
468.12 K	495.33
468.25 K	495.9
468.39 K	495.9
468.52 K	495.61
468.66 K	495.61
468.8 K	495.33
468.93 K	495.05
469.25 K	495.33
469.38 K	495.33
469.52 K	495.33
469.66 K	495.33
469.79 K	495.61
469.93 K	495.61
470.07 K	495.61
470.2 K	495.61
470.34 K	496.18
470.48 K	495.61
470.61 K	495.9
470.91 K	495.9
471.04 K	496.18
471.18 K	496.47
471.32 K	496.47
471.45 K	496.47
471.59 K	496.47
471.73 K	496.47
471.87 K	496.18
472 K	496.47
472.3 K	496.47
472.44 K	496.47
472.58 K	496.47
472.71 K	496.75
472.85 K	496.75
472.99 K	496.47
473.12 K	496.47
473.26 K	496.47
473.4 K	496.47
473.53 K	496.47
473.67 K	497.03
473.97 K	498.17
474.1 K	497.6
474.24 K	497.32
474.38 K	497.32
474.51 K	497.6
474.65 K	497.32
474.79 K	497.03
474.92 K	496.75
475.06 K	496.75
475.36 K	496.75
475.5 K	497.03
475.63 K	496.75
475.78 K	497.03
475.92 K	497.03
476.06 K	497.03
476.19 K	497.03
476.33 K	497.03
476.47 K	497.32
476.61 K	497.32
476.74 K	497.32
477.04 K	497.6
477.18 K	497.32
477.31 K	497.6
477.45 K	498.17
477.59 K	497.89
477.72 K	497.89
477.86 K	497.89
478 K	497.6
478.13 K	497.6
478.44 K	497.6
478.57 K	497.6
478.71 K	497.6
478.85 K	497.6
478.98 K	497.6
479.12 K	497.89
479.26 K	497.6
479.39 K	497.6
479.53 K	497.89
479.67 K	497.89
479.81 K	498.17
480.1 K	498.17
480.24 K	498.17
480.38 K	497.89
480.51 K	498.17
480.65 K	498.17
